Data on five molecules can be found in patent publication US9751081B2, “Self-regenerating antioxidant catalysts and methods of using the same” (Clemson University, priority 2014, dated 2017).

The conditions of data set [1]: published values; cited from earlier work.
Data set [2] is described as follows: Reduction of ABTS radical monoanion in EtOH (absorbance at 750 nm). Format: biochemical. Here is the method: To probe the potential antioxidant activity of Ru1, 2,2′-azino-bis(3-ethylbenzothiazoline-6-sulfonate) radical monoanion (ABTS^•−), which is stable in aerobic, protic media and undergoes reversible one-electron reduction to ABTS^2−, was selected as the substrate for studies of catalytic radical reduction (Scheme 7).
Accompanying this degradation of 50 μM ABTS^•− was an increase in absorbance at 340 nm corresponding to the formation of 50 μM ABTS^2−, indicating 1:1 conversion of ABTS^•− to ABTS^2− by Ru1.
To assess its catalytic potential and corresponding regeneration, the reactivity of Ru1 with multiple sequential aliquots of excess ABTS^•− was examined. After the reduction of 50 μM ABTS^•− by 5 μM Ru1 (DMSO stock) was complete (FIG. 12B, black line), 5 additional 50 μM aliquots of ABTS^•− were introduced, whereupon complete ABTS^•− reduction occurred each time (FIG. 12B, grey line, 60 turnovers). Although the time required for complete degradation increased with each successive ABTS^•− aliquot, 5 μM Ru1 nonetheless remained catalytically competent for the complete reduction of […] ABTS^•−.

Data set [3] is described as follows: In situ oxidation of ABTS^2− to ABTS^•− via HRP and H2O2 in the presence of antioxidant. Format: biochemical.
Data set [4] can be described thus: Stability (air, moisture, solution). In kind it is physicochemical. To be noted: isolated powder.

A word on the pKa: it is the pH at which an ionisable group is half protonated.

Molecules are shown by their SMILES.

With `OCCO` [EG, Ethylene glycol], in data set [1], the pKa was 14.22.
Take `CO` [MeOH, methanol]: the pKa in data set [1] is 15.5.
For the molecule `Cc1c(C)c2c(c(C)c1O)CCC(C)(C(=O)O)O2` (stereo not drawn) [Trolox], the “ABTS^•− reduced” value in data set [2] (5 μM antioxidant, 50 μM ABTS^•− in EtOH) stood at 10 µM. In data set [2] (5 μM antioxidant, 50 μM ABTS^•− in EtOH, 25° C.), the “decay in radical absorbance at 750 nm” value came out at 20%. For the same molecule, the “equiv. of ABTS^•− reduced vs antioxidant” value in data set [2] (EtOH, non-catalytic capacity) is listed as 2 equiv. Moreover, in data set [3] (5 μM Trolox, 10 μM H2O2), the “net oxidation of ABTS^2−” value is on record as 75% and the “time with no change in absorbance at 734 nm (ABTS^•− formation halted)” value stood at 4.2 ± 0.4 min. Also, the “initial rate of ABTS^•− formation (v0)” value in data set [3] (5 μM antioxidant (DMSO stock), 10 nM HRP, 50 μM ABTS^2−, first 10 μM H2O2, PBS) is recorded as 3.44±0.11×10^−8 M s^−1. Moreover, in data set [3] (first 10 μM H2O2), the “maximum ABTS^•− concentration” value turned out to be 15.06 ± 0.04 µM and the “time to maximum ABTS^•− concentration” value was 22.0 ± 0.5 min.
Consider `Br.Cc1cc(C)cc(-n2c[n+](CC(=O)[O-])c3ccccc32)c1` [[1H2][Br], 2-(3-{3,5-dimethylphenyl}-benzimidazol-1-ium-1-yl)acetate hydrobromide], for which, in data set [4], the “stability to air and moisture” value is “air- and moisture-stable”.
Regarding `CC(C)O` [i-PrOH, isopropanol], in data set [1], the pKa is on record as 16.5.
